This is an account of results in patent publication US8362249B2, “CXCR3 receptor antagonists” (Boehringer Ingelheim International GmbH, priority 2009, dated 2013).

Experiment [1] deals with LDL receptor knockout model. The following applies: dosed prophylactically; cited from earlier work.
In a further experiment the target is CXCR3 (Macaca fascicularis, UniProt A0A2K5UV19). The experiment can be described thus: functional cellular assay measuring calcium flux in CXCR3 transfected cells (block of CXCR3/IP-10 interaction). The experiment is classed as cell-based. The following applies: IP-10 induced intracellular calcium flux; Cyno-CHO cells stably expressing recombinant CXCR3 and G-alpha-16. Summed up: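 Cyno-CHO cells stably co-expressing recombinant CXCR3 and G-alpha-16, loaded with Ca-4 dye (HBSS, 10 mM HEPES pH 7.4, 2 mM probenecid) for 1 h at 37 °C. Compound (10 microM final) preincubated 15 min at room temperature, then IP-10 added at EC80. Intracellular calcium flux read by fluorescence (ex 480/em 540 nm).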
(Calcium flux is commonly read through the fluorescence of an indicator in the cells.)

CXCR3, sequence (A0A2K5UV19 entry or part of it): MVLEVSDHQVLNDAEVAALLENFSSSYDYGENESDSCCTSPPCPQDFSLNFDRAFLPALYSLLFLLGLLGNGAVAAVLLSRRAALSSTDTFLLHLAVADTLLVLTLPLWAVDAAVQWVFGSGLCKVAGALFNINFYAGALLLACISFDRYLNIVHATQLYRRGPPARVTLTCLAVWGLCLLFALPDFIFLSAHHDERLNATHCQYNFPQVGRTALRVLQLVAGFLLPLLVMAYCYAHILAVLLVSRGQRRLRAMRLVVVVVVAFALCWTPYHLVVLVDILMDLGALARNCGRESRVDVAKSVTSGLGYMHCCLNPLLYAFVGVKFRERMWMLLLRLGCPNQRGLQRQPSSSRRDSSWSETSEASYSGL

Turning to `CCOc1ccc(-n2c(C(C)N(Cc3cccnc3)C(=O)Cc3ccc(F)c(C(F)(F)F)c3)nc3ncccc3c2=O)cc1` (stereo not shown) [NBI-74330], the atherosclerotic lesion formation entry in experiment [1] was “significantly attenuated atherosclerotic lesion formation”.
Take `Cc1cc(C)n(CC(=O)N2CCN(c3ccccc3C(=O)Nc3ccc4nc(C)sc4c3)CC2)n1` [2-{4-[2-(3,5-Dimethyl-pyrazol-1-yl)-acetyl]-piperazin-1-yl}-N-(2-methyl-benzothiazol-6-yl)-benzamide]: the IC50 on CXCR3 was determined as 13 nM.
Turning to `O=C(Nc1cc(Cl)cnc1N1CCN(C(=O)CN2CCCCC2=O)CC1)c1cccc(Cl)c1` [3-Chloro-N-(5-chloro-2-{4-[2-(2-oxo-piperidin-1-yl)-acetyl]-piperazin-1-yl}-pyridin-3-yl)-benzamide], the IC50 at CXCR3 was found to be 7.7 nM.
Turning to `Cc1cc(C)n(CC(=O)N2CCN(c3ccccc3C(=O)Nc3cccc(S(C)(=O)=O)c3)CC2)n1` [2-{4-[2-(3,5-Dimethyl-pyrazol-1-yl)-acetyl]-piperazin-1-yl}-N-(3-methanesulfonyl-phenyl)-benzamide], the IC50 at CXCR3 came to 19 nM.

Usually IC50 stands for the concentration that inhibits the measured activity by half.
